Laboratory results published in PMC7413254 (Nature Communications, 2020).
Read-outs that look alike come from different tables or passages of the source.

Assays:
[1] = molecular target: T1, PfCRT^Ecu1110 (Plasmodium falciparum, UniProt Q9N623, A220S/I356L/K76T/N326D); test: [3H]CQ uptake into Xenopus oocytes, cis-inhibition by unlabelled solute; format: cell-based
Procedure, shortened: (§1)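 Radioactivity accumulated per oocyte, read by liquid scintillation after 10% SDS lysis, served as the uptake measure. Incubations ran 1.5 h at 27.5 °C in ND96 at pH 5.5, matching digestive-vacuole acidity.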

[2] = molecular target: T2, PfCRT^Dd2 (Plasmodium falciparum, UniProt Q9N623, A220S/I356T/K76T/M74I/N326S/N75E/Q271E/R371I); test: as above; format: cell-based
T2 sequence (Q9N623 whole entry A220S/I356T/K76T/M74I/N326S/N75E/Q271E/R371I): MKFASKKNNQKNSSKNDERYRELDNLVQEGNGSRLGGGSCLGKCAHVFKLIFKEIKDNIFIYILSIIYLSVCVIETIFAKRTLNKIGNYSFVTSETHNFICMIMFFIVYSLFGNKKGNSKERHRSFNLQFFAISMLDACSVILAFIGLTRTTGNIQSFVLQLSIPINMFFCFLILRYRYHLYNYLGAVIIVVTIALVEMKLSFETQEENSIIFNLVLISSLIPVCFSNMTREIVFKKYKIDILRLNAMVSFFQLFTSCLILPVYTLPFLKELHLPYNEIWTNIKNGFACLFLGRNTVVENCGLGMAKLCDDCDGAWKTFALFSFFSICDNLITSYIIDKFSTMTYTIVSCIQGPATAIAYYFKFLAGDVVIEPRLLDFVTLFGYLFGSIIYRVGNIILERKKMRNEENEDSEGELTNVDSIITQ
Procedure, shortened: as §1

[3] = system: non-expressing oocytes; format: cell-based, Xenopus laevis; settings: total [3H]CQ transport; for Uptake of [3H]CQ (% non-expressing oocyte control), trans-stimulation: non-expressing oocytes, normalised to the oocyte type control; for Uptake of [3H]CQ (% PfCRTDd2 control), trans-stimulation, non-expressing oocytes: mean ± SEM, SEM
Procedure, shortened: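 Oocytes (ten per treatment, ≥4 independent frogs/days) were preloaded by injecting VF-6 in 25 nL ND96 at pH 5.0, 5.5, 6.0 or 7.0, or Na^+-free choline buffer, then uptake run 1.5 h, 27.5 °C, ND96 pH 5.5 by default. Internal concentrations assumed ~400 nL oocyte volume.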

[4] = system: PfCRT; test: Potential co-substrates tested for influx of VF-6 via PfCRT into the oocyte; format: cell-based, Plasmodium falciparum; parameters: key: X: Compounds that have been tested as potential co-substrates but are not required for influx of VF-6 via PfCRT into the oocyte
[5] = molecular target: T1, PfCRT^Ecu1110; test: cell-based; format: cell-based; settings: […]
Procedure, shortened: (§2)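 Transport measured in Xenopus oocytes expressing the transporters, 1.5 h at 27.5 °C in ND96 pH 5.5 unless noted. For trans-stimulation, VF-6 injected in 25 nL ND96 at pH 5.0–7.0 or Na^+-free (choline) buffer; intracellular levels based on ~400 nL oocyte volume. Ten oocytes per treatment, ≥4 experiments.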

[6] = molecular target: T3, PfNT1 (Plasmodium falciparum, UniProt Q8IDM6); test: cell-based; format: cell-based; settings: for activity at 5000 µM: total [3H]CQ transport
T3 construct: expressed in transfected cells; host or cells: Xenopus laevis oocytes (stage V-VI), cRNA-injected
T3 sequence (Q8IDM6 whole entry): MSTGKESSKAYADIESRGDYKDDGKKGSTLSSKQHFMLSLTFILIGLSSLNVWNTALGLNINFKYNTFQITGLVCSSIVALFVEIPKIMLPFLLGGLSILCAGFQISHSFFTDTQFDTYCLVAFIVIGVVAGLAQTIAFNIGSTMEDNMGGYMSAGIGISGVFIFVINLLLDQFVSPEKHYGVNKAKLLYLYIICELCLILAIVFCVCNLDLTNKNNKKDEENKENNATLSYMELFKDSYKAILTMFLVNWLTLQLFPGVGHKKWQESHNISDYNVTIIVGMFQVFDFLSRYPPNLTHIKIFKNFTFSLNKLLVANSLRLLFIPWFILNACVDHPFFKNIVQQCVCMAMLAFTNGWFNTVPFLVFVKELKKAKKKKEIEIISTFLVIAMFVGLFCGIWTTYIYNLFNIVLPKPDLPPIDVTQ
Procedure, shortened: as §2

[7] = molecular target: T4, PfCRT^3D7 (Plasmodium falciparum, UniProt Q8IBZ9); test: cell-based; format: cell-based
T4 sequence (Q8IBZ9 59-398): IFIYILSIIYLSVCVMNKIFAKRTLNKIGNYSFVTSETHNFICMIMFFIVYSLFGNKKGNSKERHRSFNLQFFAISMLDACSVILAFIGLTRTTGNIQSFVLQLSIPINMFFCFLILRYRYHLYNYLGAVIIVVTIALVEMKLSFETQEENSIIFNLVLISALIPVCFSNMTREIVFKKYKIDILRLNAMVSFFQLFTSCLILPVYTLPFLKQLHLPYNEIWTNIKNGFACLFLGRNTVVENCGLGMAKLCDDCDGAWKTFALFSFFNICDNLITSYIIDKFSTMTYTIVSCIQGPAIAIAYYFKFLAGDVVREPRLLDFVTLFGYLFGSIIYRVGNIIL
Procedure, shortened: as §2

[8] = molecular target: T2, PfCRT^Dd2; test: cell-based; format: cell-based; settings: […]; for activity at 45000 µM: [test solute]i = 45 mM (30 mM for some solutes due to solubility)
Procedure, shortened: as §2

[9] = molecular target: T4, PfCRT^3D7; test: cell-based; format: cell-based; settings: total [3H]CQ transport; for inhibition at 500 µM: [test solute] = 0.5 mM; for inhibition at 1000 µM: [test solute] = 1 mM; for inhibition at 2000 µM: [test solute] = 2 mM
Procedure, shortened: as §1

[10] = system: PfCRT; test: Test of solutes as potential co-substrates for influx of VF-6 via PfCRT into the oocyte; format: cell-based, Plasmodium falciparum; parameters: key: X: Compounds that have been tested as potential co-substrates but are not required for influx of VF-6 via PfCRT into the oocyte; settings: X = tested
[11] = system: non-expressing oocytes; test: cells; format: cell-based, Xenopus laevis; settings: Xenopus laevis, total [3H]CQ transport; for inhibition at 500 µM: [test solute] = 0.5 mM; for inhibition at 1000 µM: [test solute] = 1 mM; for inhibition at 2000 µM: [test solute] = 2 mM
Procedure, shortened: as §1

[12] = read-out: PfCRT-mediated [3H]CQ transport, cis-inhibition (% PfCRTEcu1110 control)
[13] = read-out: Uptake of [3H]CQ (% PfCRTDd2 control), cis-inhibition, PfCRTEcu1110, SEM
[14] = read-out: Uptake of [3H]CQ (% PfCRTEcu1110 control), cis-inhibition
[15] = read-out: [3H]CQ transport (% PfCRTEcu1110 control), cis-inhibition, PfCRTEcu1110, SEM
[16] = read-out: PfCRT-mediated [3H]CQ transport, cis-inhibition (% PfCRTDd2 control)
[17] = read-out: Uptake of [3H]CQ (% PfCRTDd2 control), cis-inhibition, PfCRTDd2, SEM
[18] = PfCRT3D7 oocytes, normalised to the oocyte type control, read-out: Uptake of [3H]CQ (% PfCRT3D7 control), cis-inhibition
[19] = mean ± SEM, SEM, read-out: Uptake of [3H]CQ (% PfCRTDd2 control), cis-inhibition, PfCRT3D7
[20] = Oocyte, mean ± SEM, SEM, read-out: Uptake of [3H]CQ (% PfCRTDd2 control), cis-inhibition, non-expressing oocytes
[21] = non-expressing oocytes, normalised to the oocyte type control, read-out: Uptake of [3H]CQ (% non-expressing oocyte control), cis-inhibition

T1 sequence (Q9N623 whole entry A220S/I356L/K76T/N326D): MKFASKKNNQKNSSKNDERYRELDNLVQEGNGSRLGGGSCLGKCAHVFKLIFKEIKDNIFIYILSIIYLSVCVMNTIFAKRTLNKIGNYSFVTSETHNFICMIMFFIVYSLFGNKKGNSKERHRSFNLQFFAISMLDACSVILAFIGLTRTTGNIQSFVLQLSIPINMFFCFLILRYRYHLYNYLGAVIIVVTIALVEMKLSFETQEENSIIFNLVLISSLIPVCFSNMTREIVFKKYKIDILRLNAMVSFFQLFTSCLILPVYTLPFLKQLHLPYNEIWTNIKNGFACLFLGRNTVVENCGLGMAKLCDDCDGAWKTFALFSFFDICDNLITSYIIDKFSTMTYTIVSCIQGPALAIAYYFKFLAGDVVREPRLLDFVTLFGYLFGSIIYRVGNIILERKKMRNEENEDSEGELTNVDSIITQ

C[C@H](N)C(=O)O [L-alanine]
inhibition at 500 µM [1, 12]: 93 ± 1.3%
inhibition at 1000 µM [1, 12]: 95 ± 1.7%
inhibition at 500 µM [1, 13]: 31 ± 2.5%
inhibition at 1000 µM [1, 13]: 32 ± 2.1%
inhibition at 2000 µM [1, 13]: 32 ± 0.9%
inhibition at 500 µM [1, 14]: 96 ± 2.5%
inhibition at 1000 µM [1, 14]: 97 ± 2.5%
inhibition at 2000 µM [1, 14]: 98 ± 4.1%
inhibition at 500 µM [1, 15]: 28 ± 0.6%
inhibition at 1000 µM [1, 15]: 29 ± 1.1%
inhibition at 2000 µM [1, 15]: 29 ± 1.5%
inhibition at 500 µM [2, 16]: 95 ± 2.1%
inhibition at 1000 µM [2, 16]: 94 ± 3.8%
inhibition at 500 µM [2, 17]: 97 ± 4.6%
inhibition at 1000 µM [2, 17]: 96 ± 3.3%
inhibition at 2000 µM [2, 17]: 98 ± 3.1%
Uptake of [3H]CQ (% non-expressing oocyte control), trans-stimulation ([3]; [test solute]i = 5 mM): 99 ± 3.2 % non-expressing oocyte control
Uptake of [3H]CQ (% non-expressing oocyte control), trans-stimulation ([3]; [test solute]i = 45 mM (30 mM for some solutes due to solubility)): 99 ± 2.2 % non-expressing oocyte control
Uptake of [3H]CQ (% PfCRTDd2 control), trans-stimulation, non-expressing oocytes ([3]; [test solute]i = 5 mM (intracellular)): 3.1 ± 0.03 % PfCRTDd2 control
Uptake of [3H]CQ (% PfCRTDd2 control), trans-stimulation, non-expressing oocytes ([3]; [test solute]i = 45 mM (intracellular; 30 mM for some solutes due to solubility)): 3.3 ± 0.08 % PfCRTDd2 control
Tested as potential co-substrate but not required for influx of VF-6 via PfCRT into the oocyte [4]: X
activity at 5000 µM ([5]; pH 5.5, read-out: PfCRT-mediated [3H]CQ transport, trans-stimulation (% PfCRTEcu1110 control), [test solute]i = 5 mM (intracellular), PfCRTEcu1110 oocytes, normalised to oocyte type control): 97 ± 1.4%
activity at 5000 µM ([5]; pH 5.5, read-out: Uptake of [3H]CQ (% PfCRTEcu1110 control), trans-stimulation, PfCRTEcu1110 oocytes, [test solute]i = 5 mM, total [3H]CQ transport, normalised to the oocyte type control): 99 ± 3.2%
activity at 45000 µM ([5]; pH 5.5, read-out: Uptake of [3H]CQ (% PfCRTEcu1110 control), trans-stimulation, PfCRTEcu1110 oocytes, [test solute]i = 45 mM (30 mM for some solutes due to solubility), total [3H]CQ transport, normalised to the oocyte type control): 101 ± 2.1%
activity at 5000 µM ([5]; read-out: Uptake of [3H]CQ (% PfCRTDd2 control), trans-stimulation, PfCRTEcu1110, total [3H]CQ transport, [test solute]i = 5 mM (intracellular), mean ± SEM, SEM): 35 ± 2.6%
activity at 45000 µM ([5]; read-out: Uptake of [3H]CQ (% PfCRTDd2 control), trans-stimulation, PfCRTEcu1110, total [3H]CQ transport, [test solute]i = 45 mM (intracellular; 30 mM for some solutes due to solubility), mean ± SEM, SEM): 36 ± 1.5%
activity at 5000 µM ([6]; PfNT1 oocytes, [test solute]i = 5 mM, normalised to the oocyte type control, read-out: Uptake of [3H]CQ (% PfNT1 control), trans-stimulation): 99 ± 3.1%
activity at 45000 µM ([6]; SEM, read-out: Uptake of [3H]CQ (% PfCRTDd2 control), trans-stimulation, PfNT1): 3.2 ± 0.02%
activity at 45000 µM ([6]; read-out: Uptake of [3H]CQ (% PfNT1 control), trans-stimulation): 99 ± 3.6%
activity at 5000 µM ([6]; [test solute]i = 5 mM (intracellular), mean ± SEM, SEM, read-out: Uptake of [3H]CQ (% PfCRTDd2 control), trans-stimulation, PfNT1): 2.2 ± 0.03%
activity at 5000 µM ([7]; PfCRT3D7 oocytes, [test solute]i = 5 mM, total [3H]CQ transport, normalised to the oocyte type control, read-out: Uptake of [3H]CQ (% PfCRT3D7 control), trans-stimulation): 99 ± 3.6%
[3H]CQ transport (% PfCRT3D7 control), trans-stimulation, PfCRT3D7 ([7]; SEM): 0.3 ± 0.01 % PfCRT3D7 control
activity at 5000 µM ([7]; [test solute]i = 5 mM (intracellular), PfCRT3D7 oocytes, normalised to oocyte type control, read-out: PfCRT-mediated [3H]CQ transport, trans-stimulation (% PfCRT3D7 control)): 97 ± 2.1%
activity at 45000 µM ([7]; SEM, read-out: Uptake of [3H]CQ (% PfCRTDd2 control), trans-stimulation, PfCRT3D7): 3.3 ± 0.05%
activity at 45000 µM ([7]; read-out: PfCRT-mediated [3H]CQ transport, trans-stimulation (% PfCRT3D7 control)): 97 ± 2.3%
activity at 45000 µM ([7]; read-out: Uptake of [3H]CQ (% PfCRT3D7 control), trans-stimulation): 99 ± 3.2%
activity at 5000 µM ([7]; total [3H]CQ transport, [test solute]i = 5 mM (intracellular), mean ± SEM, SEM, read-out: Uptake of [3H]CQ (% PfCRTDd2 control), trans-stimulation, PfCRT3D7): 3.3 ± 0.05%
activity at 5000 µM ([8]; pH 5.5, read-out: PfCRT-mediated [3H]CQ transport, trans-stimulation (% PfCRTDd2 control), [test solute]i = 5 mM (intracellular), PfCRTDd2 oocytes, normalised to oocyte type control): 95 ± 1.9%
activity at 5000 µM ([8]; pH 5.5, read-out: Uptake of [3H]CQ (% PfCRTDd2 control), trans-stimulation, PfCRTDd2, total [3H]CQ transport, [test solute]i = 5 mM (intracellular), mean ± SEM, SEM): 97 ± 3.3%
activity at 5000 µM ([8]; pH 5.5, read-out: Uptake of [3H]CQ (% PfCRTDd2 control), trans-stimulation, PfCRTDd2 oocytes, [test solute]i = 5 mM, total [3H]CQ transport, normalised to the oocyte type control): 97 ± 3.3%
activity at 45000 µM ([8]; pH 5.5, read-out: Uptake of [3H]CQ (% PfCRTDd2 control), trans-stimulation, PfCRTDd2 oocytes, total [3H]CQ transport, normalised to the oocyte type control): 98 ± 1.9%
activity at 5000 µM ([8]; pH 5.5, read-out: [3H]CQ transport (% PfCRTDd2 control), trans-stimulation, PfCRTDd2, trans-stimulation, [test solute]i = 5 mM (injected), PfCRT-mediated component (background subtracted), mean ± SEM, SEM): 95 ± 1.9%
activity at 45000 µM ([8]; pH 5.5, read-out: [3H]CQ transport (% PfCRTDd2 control), trans-stimulation, PfCRTDd2, trans-stimulation, PfCRT-mediated component (background subtracted), mean ± SEM, SEM): 96 ± 3.2%
inhibition at 500 µM [9, 18]: 99 ± 3.2%
inhibition at 1000 µM [9, 18]: 100 ± 3.6%
inhibition at 2000 µM [9, 18]: 99 ± 4.6%
inhibition at 500 µM [9, 19]: 4.2 ± 0.03%
inhibition at 1000 µM [9, 19]: 3.1 ± 0.07%
inhibition at 2000 µM [9, 19]: 3.2 ± 0.08%
Tested as potential co-substrate but not required for influx of VF-6 via PfCRT into the oocyte [10]: X
inhibition at 500 µM [11, 20]: 3.5 ± 0.08%
inhibition at 1000 µM [11, 20]: 3.7 ± 0.08%
inhibition at 2000 µM [11, 20]: 2.2 ± 0.06%
inhibition at 500 µM [11, 21]: 99 ± 5.3%
inhibition at 1000 µM [11, 21]: 100 ± 3.5%
inhibition at 2000 µM [11, 21]: 99 ± 1.4%
